One assay concerns LOX-GFP cells. The experiment in a line: LOX-GFP peritoneal (ascites) model. Format: in vivo, Nu/Nu mice. How it is done:
Human melanoma LOX-GFP cells, prepared in accordance with the procedure of Example 3, were maintained in RPMI 1640 medium plus 10% FBS, and 1% Geneticin (G418).
Mice were euthanized, and then a small incision was made along the midline of the abdomen through the skin and peritoneum. A glass Pasteur pipet was utilized to aspirate and remove ascites fluid from the peritoneum, and the ascites was transferred to a 15 ml tube. 3 ml saline was used to rinse the peritoneal cavity, and all of the saline was recovered and transferred into the 15 ml tube containing the ascites fluid. The ascites cell suspension was filtered through a 40 μm nylon filter to obtain a single cell suspension and centrifuged at 1500 rpm for 10 min. The supernatant was removed, and the cell pellet was resuspended in 2 ml of fresh saline. 0.1 ml from each sample was transferred into a 96 well plate to evaluate cell number (reported as relative fluorescence units) utilizing an Acumen Explorer.

The next assay deals with LOX-GFP-LM cells. Kind of assay: LOX-GFP-LM experimental metastasis model (lung homogenate fluorescence and survival). Format: in vivo, SCID beige mice. Particulars: for TGI % At day 26 (tumor growth inhibition relative to Vehicle control group) / RFU (mean ± SD) of lung homogenate / ILS % (increased lifetime-span) / 50% survival days / TGI % At day 25 (tumor growth inhibition relative to Vehicle control group): bid. How it is done: Female SCID beige mice were injected iv via the tail vein with 2 million cells in a volume of 200 μl serum free RPMI1640, randomized into groups, and treated as shown in Tables 6 and 7 with a variety of doses and/or dose schedules. […] The remaining mice from each group were monitored for survival benefit until they were moribund.
Two parameters were assessed for quantitative evaluation of anti-metastatic efficacy: 1) Fluorescence intensity of lung homogenates and 2) Survival.
5 mice per treatment group were removed from the study at Day 25 or 26 for evaluation of lung metastatic tumor burden. Mice were euthanized, and lungs were removed, placed in 3 ml saline, and homogenized. 0.2 ml of lung homogenate was transferred to a 96 well plate, and fluorescence was read using Acumen Explorer. […] Fluorescence was reported in relative fluorescence units (RFU). […] Statistical analysis was determined by Student-test or Mann-Whitney U test, and statistic differences between groups were considered to be significant when the probability value (p) was ≦0.05.
Survival represented overall metastatic status either due to lung metastasis or metastasis to other organs. Moribundity due to labored breathing or hind limb paralysis was monitored and recorded as the surrogate endpoint for survival. For survival assessment, results were plotted as the percentage survival against days after tumor implant. The Increased lifetime-span (% ILS) was calculated as: ILS %=100×[(median survival day of treated group−median survival day of control group)/median survival day of control group]. Median survival or (50% survival time) was determined utilizing Kaplan Meier survival analysis. […] Differences in survival were analyzed by the log-rank test. Statistic differences between groups were considered to be significant when the probability value (p) was ≦0.05.

The mark [1] stands for this setting: 25, 50, 100 mg/kg po bid, 6 doses (Days 4, 5 & 6), ascites harvest Day 7.

On to `COc1ccc(C2=N[C@@H](c3ccc(Cl)cc3)[C@@H](c3ccc(Cl)cc3)N2C(=O)N2CCNC(=O)C2)c(OC(C)C)c1` (stereo in doubt) [Compound D, 4-[(4S,5R)-4,5-Bis-(4-chloro-phenyl)-2-(2-isopropoxy-4-methoxy-phenyl)-4,5-dihydro-imidazole-1-carbonyl]-piperazin-2-one], for which the LOX-GFP ascites growth result in the assay on LOX-GFP cells (setting [1]) was “inhibited LOX-GFP ascites growth at several doses”. For the same compound, the “dose dependence of LOX-GFP ascites growth inhibition” value with LOX-GFP cells (setting [1]) was “not dose-dependent”. In addition, the “TGI % At day 26 (tumor growth inhibition relative to Vehicle control group)” value in the assay on LOX-GFP-LM cells (200 mg/kg po, Day 3-21) was determined as 96.2%; in the assay on LOX-GFP-LM cells (200 mg/kg po, Day −1-7) it was 66.0%; in the assay on LOX-GFP-LM cells (200 mg/kg po, Day −1-21) it was 78.7%. For the same compound, the “RFU (mean ± SD) of lung homogenate” value in the assay with LOX-GFP-LM cells (200 mg/kg po, Day 3-21, lungs at day 26) was found to be 2359191 ± 526586 RFU; with LOX-GFP-LM cells (200 mg/kg po, Day −1-7, lungs at day 26), 21092887 ± 10460489 RFU; in the assay on LOX-GFP-LM cells (200 mg/kg po, Day −1-21, lungs at day 26), 13230372 ± 11960417 RFU. In addition, the “ILS % (increased lifetime-span)” value in the assay with LOX-GFP-LM cells (200 mg/kg po, Day 3-d21) turned out to be 29%; with LOX-GFP-LM cells (200 mg/kg po, Day −1-d7), 0%; in the assay on LOX-GFP-LM cells (200 mg/kg po, Day −1-d21), 10.7%. The 50% survival days in the assay with LOX-GFP-LM cells (200 mg/kg po, Day 3-d21, Vehicle 28 days) was 36 days; in the assay on LOX-GFP-LM cells (200 mg/kg po, Day −1-d7, Vehicle 28 days), 28 days; in the assay with LOX-GFP-LM cells (200 mg/kg po, Day −1-d21, Vehicle 28 days), 31 days. In addition, in the assay on LOX-GFP-LM cells (late intervention (Dosed Day 3 through 23) as compared to Vehicle), the “anti-metastatic activity as assessed by fluorescence intensity of lung homogenates” value is “superior anti-metastatic activity”.

On to `COc1ccc(F)c(F)c1C(=O)c1cnc(NC2CCN(S(C)(=O)=O)CC2)nc1N` [Compound A, [4-Amino-2-(1-methanesulfonyl-piperidin-4-ylamino)-pyrimidin-5-yl]-(2,3-difluoro-6-methoxy-phenyl)-methanone], for which the “LOX-GFP ascites cell growth” value is on record as “reduced cell growth” in the assay on LOX-GFP cells (Compound A 40 mg/kg po, 2 doses (Days 5 & 6), ascites harvest Day 7); “reduced cell growth maximally” in the assay on LOX-GFP cells (Compound A 40 mg/kg po, 3 doses (Days 4, 5 & 6), ascites harvest Day 7); “did not inhibit cell growth” with LOX-GFP cells (Compound A 40 mg/kg po, single dose (Day 6), ascites harvest Day 7).

On to `COc1ccc(C2=NC(c3ccc(Cl)cc3)C(c3ccc(Cl)cc3)N2C(=O)N2CCNC(=O)C2)c(OC(C)C)c1` (stereo not drawn) [Compound B, 4-[4,5-Bis-(4-chloro-phenyl)-2-(2-isopropoxy-4-methoxy-phenyl)-4,5-dihydro-imidazole-1-carbonyl]-piperazin-2-one], for which, in the assay on LOX-GFP cells (40 mg/kg sc, 6 doses, ascites harvest Day 8), the LOX-GFP ascites growth result is recorded as “demonstrated inhibitory effects on LOX-GFP ascites growth”.

On to `CCOc1ccnc2ccc(/C=C3\SC(N[C@@H](CO)c4ccccc4)=NC3=O)cc12` [Compound C, 5-(4-Ethoxy-quinolin-6-ylmeth-(Z)-ylidine)-2-(2-hydroxy-1-(R)-phenyl-ethylamino)-thiazol-4-one], for which the LOX-GFP ascites growth entry with LOX-GFP cells (200 mg/kg po bid, 12 doses, ascites harvest Day 8) is reported as “demonstrated inhibitory effects on LOX-GFP ascites growth”.

As to `Cc1[nH]nc2c1N=C(c1ccccc1Cl)c1cc(N)ccc1N2` [Compound E], the “TGI % At day 25 (tumor growth inhibition relative to Vehicle control group)” value with LOX-GFP-LM cells (5 mg/kg po, Day 3-23) was 82.3%; with LOX-GFP-LM cells (5 mg/kg po, Day −1-7), −5.9%; in the assay on LOX-GFP-LM cells (5 mg/kg po, Day −1-23) it was 73.9%. Also, the “RFU (mean ± SD) of lung homogenate” value was 8618508 ± 3198528 RFU with LOX-GFP-LM cells (5 mg/kg po, Day 3-23, lungs at day 25); 51670506 ± 29321586 RFU with LOX-GFP-LM cells (5 mg/kg po, Day −1-7, lungs at day 25); 12738540 ± 5426672 RFU with LOX-GFP-LM cells (5 mg/kg po, Day −1-23, lungs at day 25). In addition, the “ILS % (increased lifetime-span)” value is 16.7% in the assay on LOX-GFP-LM cells (5 mg/kg po, Day 3-d23); 4.2% in the assay with LOX-GFP-LM cells (5 mg/kg po, Day −1-d7); 16.7% in the assay with LOX-GFP-LM cells (5 mg/kg po, Day −1-d23). In addition, the 50% survival days in the assay with LOX-GFP-LM cells (5 mg/kg po, Day 3-d23, Vehicle 24 days) came to 28 days; with LOX-GFP-LM cells (5 mg/kg po, Day −1-d7, Vehicle 24 days) it was 25 days; in the assay on LOX-GFP-LM cells (5 mg/kg po, Day −1-d23, Vehicle 24 days), 28 days. Besides, in the assay on LOX-GFP-LM cells (late intervention (Dosed Day 3 through 23) vs full length intervention (Day −1 through 23)), the “anti-metastatic activity as assessed by fluorescence intensity of lung homogenates” value is “equivalent anti-metastatic activity”.

With `CC(=O)O[C@H]1C(=O)[C@@]2(C)[C@H]([C@H](OC(=O)c3ccccc3)[C@]3(O)C[C@H](OC(=O)[C@H](O)[C@@H](NC(=O)c4ccccc4)c4ccccc4)C(C)=C1C3(C)C)[C@]1(OC(C)=O)CO[C@@H]1C[C@@H]2O` [Taxol, reference compound], the “LOX-GFP ascites cell growth” value is “reduced cell growth” with LOX-GFP cells (Taxol 10 mg/kg iv, 2 doses (Days 5 & 6), ascites harvest Day 7); “reduced cell growth maximally” in the assay on LOX-GFP cells (Taxol 10 mg/kg iv, 3 doses (Days 4, 5 & 6), ascites harvest Day 7); “did not inhibit cell growth” in the assay with LOX-GFP cells (Taxol 10 mg/kg iv, single dose (Day 6), ascites harvest Day 7).
